pIC50: −log10 of the molar value.
Target: T1, Recombinant human DGAT2 protein (Homo sapiens, UniProt Q96PD7)
T1 construct: FLAG (DYKDDDDK); (N); made in house; host or cells: Sf-21 insect cells (BacPAK baculovirus system); used as a membrane preparation
T1 sequence (Q96PD7 1-388): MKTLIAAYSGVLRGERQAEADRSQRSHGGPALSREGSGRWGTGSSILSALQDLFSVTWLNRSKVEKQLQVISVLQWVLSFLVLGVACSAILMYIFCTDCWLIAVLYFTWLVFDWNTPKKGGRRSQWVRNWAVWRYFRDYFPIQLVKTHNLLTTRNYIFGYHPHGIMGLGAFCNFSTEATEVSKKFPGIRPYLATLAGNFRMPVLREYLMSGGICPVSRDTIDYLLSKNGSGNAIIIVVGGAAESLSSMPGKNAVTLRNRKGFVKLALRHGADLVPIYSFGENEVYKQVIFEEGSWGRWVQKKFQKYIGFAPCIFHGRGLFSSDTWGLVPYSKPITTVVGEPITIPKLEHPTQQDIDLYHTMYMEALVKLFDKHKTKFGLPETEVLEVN
Experiment: Measurement of inhibitory effect against DGAT2 enzyme activity (SPA, Phospholipid FlashPlate, [14C]-TG production)
Assay type: biochemical
Conditions: concentration inhibiting [14C]-labeled triacyl glycerol (TG) production by 50%; 2 μg DGAT2-membrane protein from Sf-21 cells, 37° C.
Protocol: Experimental Example: Measurement of Inhibitory Effect Against DGAT2 Enzyme Activity
In order to prepare the pBacPAK9-DGAT2, which is DGAT2 expression vector, the human DGAT2 gene amplified by polymerase chain reaction (PCR) was cloned into the EcoR1 and Xho1 sites of the pBacPAK9 (clonctech) vector. The nucleotide sequence of the primers used in PCR was the forward primer 5′ […] and the reverse primer 5′ […]. The composition of the reaction solution was to contain 50 ng of cDNA clone (OriGene), 200 μM of dATP, dCTP, dTTP, dGTP, 200 nM of each primer, 1 unit of Tag DNA Polymerase (Toyobo), 1×PCR buffer, and the final volume was adjusted to 20 μl. The reaction conditions were denatured at 95° C. for 5 minutes, followed by 30 times of 94° C. for 20 seconds, 60° C. for 20 seconds, and 72° C. for 90 seconds, followed by further reaction at 72° C. for 7 minutes.
Recombinant human DGAT2 protein was expressed in Sf-21 cells, which are insect cells, by using the BacPack baculovirus expression system (Clontech). The brief manufacturing process is as follows. First, the pBacPAK9-DGAT2 expression vector was transfected with BacPAK6 virus DNA (Bsu36I digest) into sf21 cells using Bacfectin to prepare a recombinant DGAT2 expressing baculovirus. The thus prepared baculovirus was infected with Sf-21 cells at 10 MOI (multiplicity of infection), and after 72 hours, infected insect cells were collected and membrane proteins were isolated. For membrane protein separation, the cell pellet was dissolved in a sucrose solution containing 250 mM sucrose, 10 mM Tris (pH 7.4), and 1 mM ethylenediamine-tetraacetic acid (EDTA), and then homogenized by using a dounce homogenizer, and the supernatant was taken by centrifuging at 600×g for 15 minutes, and centrifuged at 100,000×g for 1 hour to discard the supernatant, and the remaining pellet was resuspended in 20 mM HEPES buffer (pH 7.4). The prepared DGAT2 overexpressing membrane protein was dispensed in 100 μl and stored at −80° C. until use. Protein concentration was quantified by using the BCA Protein Assay Kit (Thermo Scientific).
In vitro DGAT2 analysis was performed using a Phospholipid Flash Plate (PerkinElmer) based on the principle of SPA (Scintillation Proximity Assay). First, DGAT2 inhibition compounds serially diluted 5 times from 3 nM to 10 μM (final concentration, 1% DMSO) were mixed in a buffer solution containing 2 μg DGAT2-membrane protein and 20 mM HEPES, 20 mM MgCl2, 1 mg/mL BSA, 50 μM 1,2 sn-oleoyl glycerol (Sigma), put in a 96-well flash plate (FlashPlate) and reacted at 37° C. for 20 minutes, and then 1 μM [14C] ole oil CoA (PerkinElmer, NEC651050UC) was added to be a final volume of 100 μL and further reacted at 37° C. for 15 minutes. After the enzymatic reaction was completed, 100 μL of isopropanol was added, the plate was sealed with a film, and the plate was shaken slowly in a plate shaker. The next day, the amplified scintillation signal (cpm) in Topcounter (Packard) was measured to measure the degree of production of [14C]-labeled triacyl glycerol (TG) as a reaction product. The measured value when the compound was not treated was used as a positive control, and the measured value of the compound treated group was calculated as a relative % to measure the inhibition effect of the compound on TG production.

Row | SMILES | pIC50
1 | CCOc1ccccc1O[C@@H]1CCCN(c2cncc(NC(=O)C(C)Cc3ccc(C(=O)O)cc3)n2)C1 (stereo partly drawn) [Example 43, 4-(3-((6-((R)-3-(2-ethoxyphenoxy)piperidin-1-yl)pyrazin-2-yl)amino)-2-methyl-3-oxopropyl)benzoic acid] | 6.48
2 | CCOc1ccccc1O[C@@H]1CCCN(c2cncc(NC(=O)CCc3ccc(C(=O)O)c(Cl)c3)n2)C1 [Example 47, (R)-2-chloro-4-(3-((6-(3-(2-ethoxyphenoxy)piperidin-1-yl)pyrazin-2-yl)amino)-3-oxopropyl)benzoic acid] | 6.51
3 | CCOc1ccccc1O[C@@H]1CCCN(c2cncc(NC(=O)c3ccccc3C(=O)O)n2)C1 [Example 11, (R)-2-((6-(3-(2-ethoxyphenoxy)piperidin-1-yl)pyrazin-2-yl)carbamoyl)benzoic acid] | 4.80
4 | CCOc1ccccc1O[C@@H]1CCCN(c2cncc(NC(=O)c3cc(F)c(N4CCC(CC(=O)O)CC4)c(F)c3)n2)C1 [Example 58] | 5.12
5 | CCOc1ccccc1O[C@@H]1CCCN(c2cncc(NC(=O)CCc3cc(Cl)c(C(=O)O)c(Cl)c3)n2)C1 [Example 54, (R)-2,6-dichloro-4-(3-((6-(3-(2-ethoxyphenoxy)piperidin-1-yl)pyrazin-2-yl)amino)-3-oxopropyl)benzoic acid] | 7.06
6 | CC(C)(Cc1ccc(CC(=O)Nc2cncc(N3CCC[C@@H](Oc4ccccc4OCCF)C3)n2)cc1)C(=O)O [Example 94, (R)-3-(4-(2-((6-(3-(2-(2-fluoroethoxy)phenoxy)piperidin-1-yl)pyrazin-2-yl)amino)-2-oxoethyl)phenyl)-2,2-dimethylpropanoic acid] | 6.96
7 | CCOc1ccccc1O[C@@H]1CCCN(c2cncc(NC(=O)CCc3ccc(C(=O)O)c(F)c3)n2)C1 [Example 44, (R)-4-(3-((6-(3-(2-ethoxyphenoxy)piperidin-1-yl)pyrazin-2-yl)amino)-3-oxopropyl)-2-fluorobenzoic acid] | 6.77
8 | CCOc1ccccc1O[C@@H]1CCCN(c2cncc(NC(=O)C3CCN(c4ccc(C(=O)O)cn4)C3)n2)C1 (stereo partly drawn) [Example 87, 6-(3-((6-((R)-3-(2-ethoxyphenoxy)piperidin-1-yl)pyrazin-2-yl)carbamoyl)pyrrolidin-1-yl)nicotinic acid] | 6.80
9 | CCOc1ccccc1O[C@@H]1CCCN(c2cccc(NC(=O)Cc3ccc(C(C)(C)C(=O)O)cc3)n2)C1 [Example 68, (R)-2-(4-(2-((6-(3-(2-ethoxyphenoxy)piperidin-1-yl)pyridin-2-yl)amino)-2-oxoethyl)phenyl)-2-methylpropanoic acid] | 6.20
10 | CCOc1ccccc1O[C@@H]1CCCN(c2cncc(NC(=O)c3ccc(Cl)cc3)n2)C1 [Example 7, (R)-4-chloro-N-(6-(3-(2-ethoxyphenoxy)piperidin-1-yl)pyrazin-2-yl)benzamide] | 7.35
11 | CCOc1ccccc1O[C@@H]1CCCN(c2cncc(NC(=O)N3CCCC3)n2)C1 [Example 4, (R)—N-(6-(3-(2-ethoxyphenoxy)piperidin-1-yl)pyrazin-2-yl)pyrrolidine-1-carboxamide] | 5.80
12 | CCOc1ccccc1O[C@@H]1CCCN(c2cncc(NC(=O)Cc3ccc(C[C@H](C)C(=O)O)cc3)n2)C1 [Example 64] | 6.92
13 | CCOc1ccccc1O[C@@H]1CCCN(c2cncc(NC(=O)C3CCN(c4ccc(C(=O)O)cc4)CC3)n2)C1 [Example 59, (R)-4-(4-((6-(3-(2-ethoxyphenoxy)piperidin-1-yl)pyrazin-2-yl)carbamoyl)piperidin-1-yl)benzoic acid] | 6.00
14 | CCOc1ccccc1O[C@@H]1CCCN(c2cncc(NC(=O)c3ccc([N+](=O)[O-])cc3)n2)C1 [Example 10, (R)—N-(6-(3-(2-ethoxyphenoxy)piperidin-1-yl)pyrazin-2-yl)-4-nitrobenzamide] | 7.72
15 | CCOc1ccccc1O[C@@H]1CCCN(c2cncc(NC(=O)CCc3ccc(C(C)(C)C(=O)O)cc3)n2)C1 [Example 51, (R)-2-(4-(3-((6-(3-(2-ethoxyphenoxy)piperidin-1-yl)pyrazin-2-yl)amino)-3-oxopropyl)phenyl)-2-methylpropanoic acid] | 7.48

More lines, now with the values ahead:

Row | pIC50 | SMILES
16 | 6.60 | CCOc1cccnc1O[C@@H]1CCCN(c2cncc(NC(=O)CCC34CCC(C(=O)O)(CC3)CC4)n2)C1 [Example 120, (R)-4-(3-((6-(3-((3-ethoxypyridin-2-yl)oxy)piperidin-1-yl)pyrazin-2-yl)amino)-3-oxopropyl)bicyclo[2.2.2]octane-1-carboxylic acid]
17 | 7.22 | CCOc1ccccc1O[C@@H]1CCCN(c2nccc(NC(=O)Cc3ccc(CC(C)(C)C(=O)O)cc3)n2)C1 [Example 112, (R)-3-(4-(2-((2-(3-(2-ethoxyphenoxy)piperidin-1-yl)pyrimidin-4-yl)amino)-2-oxoethyl)phenyl)-2,2-dimethylpropanoic acid]
18 | 6.77 | CCOc1ccccc1O[C@@H]1CCCN(c2cncc(NC(=O)CC34CCC(C(=O)O)(CC3)CC4)n2)C1 [Example 118, (R)-4-(2-((6-(3-(2-ethoxyphenoxy)piperidin-1-yl)pyrazin-2-yl)amino)-2-oxoethyl)bicyclo[2.2.2]octane-1-carboxylic acid]
19 | 6.21 | CCOc1ccccc1O[C@@H]1CCCN(c2cncc(NC(=O)Cc3ccc(O[C@H](C)C(=O)O)cc3)n2)C1 [Example 103, (R)-2-(4-(2-((6-((R)-3-(2-ethoxyphenoxy)piperidin-1-yl)pyrazin-2-yl)amino)-2-oxoethyl)phenoxy)propanoic acid]
20 | 7.46 | CCOc1cccnc1O[C@@H]1CCCN(c2cncc(NC(=O)C(C)(C)c3ccc(CC(C)(C)C(=O)O)cc3)n2)C1 [Example 125, (R)-3-(4-(1-((6-(3-((3-ethoxypyridin-2-yl)oxy)piperidin-1-yl)pyrazin-2-yl)amino)-2-methyl-1-oxopropan-2-yl)phenyl)-2,2-dimethylpropanoic acid]
21 | 6.16 | CCOc1ccccc1O[C@@H]1CCCN(c2cncc(NC(=O)C(C)(C)Cc3ccc(C(C)(C)C(=O)O)cc3)n2)C1 [Example 111, (R)-2-(4-(3-((6-(3-(2-ethoxyphenoxy)piperidin-1-yl)pyrazin-2-yl)amino)-2,2-dimethyl-3-oxopropyl)phenyl)-2-methylpropanoic acid]
22 | 7.05 | CCOc1cccnc1O[C@@H]1CCCN(c2cncc(NC(=O)Cc3ccc(OC(C)(C)C(=O)O)cc3)n2)C1 [Example 105, (R)-2-(4-(2-((6-(3-((3-ethoxypyridin-2-yl)oxy)piperidin-1-yl)pyrazin-2-yl)amino)-2-oxoethyl)phenoxy)-2-methylpropanoic acid]
23 | 7.46 | CCOc1cccnc1O[C@@H]1CCCN(c2cncc(NC(=O)CCc3ccc(C(C)(C)C(=O)O)cc3)n2)C1 [Example 123, (R)-2-(4-(3-((6-(3-((3-ethoxypyridin-2-yl)oxy)piperidin-1-yl)pyrazin-2-yl)amino)-3-oxopropyl)phenyl)-2-methylpropanoic acid]
24 | 6.82 | CCOc1ccccc1O[C@@H]1CCCN(c2ccnc(NC(=O)Cc3ccc(CC(C)(C)C(=O)O)cc3)n2)C1 [Example 113, (R)-3-(4-(2-((4-(3-(2-ethoxyphenoxy)piperidin-1-yl)pyrimidin-2-yl)amino)-2-oxoethyl)phenyl)-2,2-dimethylpropanoic acid]

Reference: patent publication US12637440B2, “Amide derivative useful as diacylglycerol acyltransferase 2 inhibitor, and use thereof” (LG CHEM, LTD., priority 2019, dated 2026)
